# Experimental data taken from patent US20210332024A1, “MODULATORS OF PIN1 ACTIVITY AND USES THEREOF” (Yeda Research and Development Co. Ltd., priority 2019, published 2021).
# Experiments:
# [1] = Thiol reactivity assay (DTNB); assay type: physicochemical; details: 200 μM compound, pH 7.4, 37° C.
# Protocol: 50 μM DTNB (dithionitrobenzoic acid) was incubated with 200 μM TCEP (tris(2-carboxytehyl)phosphine) in 20 mM sodium phosphate buffer (pH 7.4) with 150 mM NaCl, for 5 minutes at room temperature, in order to obtain TNB^2− (thionitrobenzoate dianion). 200 μM compounds were subsequently added to the TNB^2−, followed by immediate UV absorbance measurement at 412 nm (at 37° C.). The UV absorbance was acquired every 15 minutes for 7 hours. The assay was performed in a 384-well plate using a Spark™ 10M plate reader (Tecan). Background absorbance of compounds was subtracted by measuring the absorbance at 412 nm of each compound under the same conditions without DTNB. Compounds were measured in triplicates. The data was fitted to a second order reaction equation such that the rate constant k is the slope of ln([A][B0]/[B][A0]), where [A0] and [B0] are the initial concentrations of the compound (200 μM) and TNB^2− (100 μM) respectively, and [A] and [B] are the remaining concentrations as a function of time, as determined from the spectrometric measurement. Linear regression using Prism® software was performed to fit the rate against the first four hours of measurements.
# In order to estimate the influence of the various lipophilic moieties on “warhead” reactivity [Flanagan et al., J Med Chem 2014, 57:10072-10079; Lonsdale et al., J Chem Inf Model 2017, 57:3124-3137; Dahal et al., Medchemcomm 2016, 7:864-872], the thiol reactivity of the top ten binders of the second and third generation was assessed using a high-throughput assay previously applied to the entire fragment library, as described in Resnick et al. [J Am Chem Soc 2019, 141:8951-8968]. In brief, the second-order rate constant was evaluated for a model thiol, which reflects trends in general reactivity towards thiol groups.
# GST-Pin1 = GST-Pin1 (Homo sapiens, UniProt Q13526); assay: Fluorescence polarization (FP) competition assay; assay type: binding; details: FP assay, competition with fluorescein-labeled peptide, 250 nM GST-Pin1; read-out: Ki (apparent)
# GST-Pin1, sequence (Q13526 whole entry): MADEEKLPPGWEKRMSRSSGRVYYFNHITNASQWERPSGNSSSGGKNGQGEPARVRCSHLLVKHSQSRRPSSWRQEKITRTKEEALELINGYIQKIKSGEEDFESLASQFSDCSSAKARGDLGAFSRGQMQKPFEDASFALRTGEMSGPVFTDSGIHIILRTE
# Protocol: Binding affinity to Pin1 was determined using a fluorescence polarization assay to assess competition with an N-terminal fluorescein-labeled peptide (Bth-D-phosThr-Pip-Nal), which was obtained from JPT Peptide Technologies and Proteintech Group. The indicated concentrations of candidate compound were pre-incubated for 12 hours at 4° C. with a solution containing 250 nM glutathione S-transferase (GST)-Pin1, 5 nM of fluorescein-labeled peptide probe, 10 μg/ml bovine serum albumin, 0.01% Tween-20 and 1 mM DTT (dithiothreitol) in a buffer of 10 mM HEPES, 10 mM NaCl and 1% glycerol (pH 7.4). Measurements of FP were performed in black 384-well plates (Corning) using an EnVision™ reader. Apparent Ki values (under the tested conditions) obtained from the FP assay results were derived from the Kenakin Ki equation:
# Kenakin Ki=(Lb)(EC50)(Kd)/(Lo)(Ro)+Lb(Ro−Lo+Lb−Kd)
# Sittampalam G. S. et al., Eli Lilly & Company and the National Center for Advancing Translational Sciences, 2004].
# Covalent labeling of Pin1 was confirmed to translate into enzyme inhibition via a fluorescence polarization (FP) competition assay using a FITC-labeled substrate mimetic peptide inhibitor, as well as a chymotrypsin-coupled PPIase assay, using procedures described in Wei et al. [Nat Med 2015, 21:457-466].
# The fluorescent polarization assay was performed in a dose-dependent and time-dependent manner, in order to further characterize the kinetic parameters of Pin1-3 binding to Pin1.
# catalytic domain of Pin1 = molecular target: T1, catalytic domain of Pin1 (Homo sapiens, UniProt Q13526); assay: Intact protein LC/MS labeling of Pin1; assay type: binding
# T1 construct: The purified catalytic domain of Pin1 was incubated with the fragment library
# T1 sequence (Q13526 52-163 limits assumed): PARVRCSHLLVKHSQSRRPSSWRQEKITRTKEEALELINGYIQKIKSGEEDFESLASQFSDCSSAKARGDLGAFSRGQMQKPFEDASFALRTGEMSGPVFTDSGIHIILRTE
# Protocol: 993 compounds were transferred to a 384-well plate working copy by combining 0.5 μl of 20 mM stock solution of four or five compounds per well. The catalytic domain of Pin1 (2 μM) in 20 mM Tris, 75 mM NaCl, pH 7.5 was incubated with 200 μM for each compound and moderately shaken for 24 hours at 4° C. The reaction was stopped by the addition of formic acid to 0.4% (v/v) final concentration.
# Liquid chromatography/mass spectroscopy runs were performed on an Acquity™ UPLC® H-class system (Waters) in positive ion mode using electrospray ionization (ESI). UPLC separation was performed on a C4 column (300 Å, 1.7 μM, […]). The column was held at 40° C., and the autosampler at 10° C. Mobile solution A was 0.1% formic acid in water and mobile phase B was 0.1% formic acid in acetonitrile. Run flow was 0.4 ml/minute; and a gradient of 20% B for 2 minutes, increasing linearly to 60% B for 3 minutes, holding at 60% B for 1.5 minutes, changing to 0% B in 0.1 minute and holding at 0% for 1.4 minutes, was used. Desolvation temperature was 500° C. with a flow rate of 1000 liters/hour. The capillary voltage was 0.69 kV and cone voltage 46 V. Raw data was processed using OpenLynx™ software and deconvoluted using the MaxEnt tool. Labeling assignment was performed as described in Resnick et al. [J Am Chem Soc 2019, 141:8951-8968].
# For the screening 2 μl of each of the 448 click products as 50 μM DMSO stocks were transferred into a 384-well plate working plate. 48 μl of catalytic domain of Pin1 (2 μM) in 20 mM Tris (pH 7.5) with 75 mM NaCl were added and moderately shaken and incubated for 15 minutes at room temperature. The reaction was stopped by the addition of formic acid to 0.4% (v/v) final concentration (20 μl). The mixtures were analyzed by liquid chromatography/mass spectroscopy analogously to the electrophile library incubations described herein. Hits were retrospectively analyzed by liquid chromatography/mass spectroscopy (LC-MS) to ensure reaction completion.
# For each measured well, processed peaks were searched to match the mass of unlabeled protein or common small adducts of the unlabeled protein, which were found in the control sample or labeled protein. Labeling percentage for a compound was determined as the labeling of a specific compound divided by the overall detected protein species. Peaks whose mass could not be assigned were discarded from the overall labeling calculation. Data was analyzed using a python script for processing the MaxEnt-deconvoluted spectra. Peaks were normalized from ion counts to percentages, where the highest peak is defined as 100%. The unlabeled protein mass is deduced from a reference well that contains just the protein.
# The purified catalytic domain of Pin1 was incubated with the fragment library (2 μM protein, 200 μM compound; 24 hours at 4° C.), followed by intact protein liquid chromatography/mass-spectrometry (LC/MS) to identify and quantify compound labeling. FIG. 1 depicts an example of a compound identified in this manner.
# Based on the docking predictions, a total of 26 compounds that featured a range of small or bulky aliphatic, arylic, biphenylic or heterocyclic side-chains (structures depicted in FIG. 5), were synthesized or purchased. In order to identify potent binders, the irreversible labeling efficiency of these second-generation compounds was assessed alongside the original screening hits under more stringent conditions, with a 1:1 ratio of protein to compound (2 μM compound; 1 hour at room temperature).
# For further optimization of the lipophilic moiety, an alkyne side chain-bearing analog was prepared, which was derivatized with 448 different azides using copper-catalyzed azide-alkyne cycloaddition (CuAAC).
# MDA-MB-231 cells = assay: Cell viability assay (CellTiter-Glo); assay type: cell-based; details: cell viability assay with MDA-MB-231 cells
# Protocol: MDA-MB-231 cells grew in DMEM medium supplemented with 10% FCS (fetal calf serum), 1% PS (penicillin-streptomycin) and 1% L-glutamine (all from Biological Industries). Exclusion of mycoplasma contamination was monitored and conducted by test with MycoAlert™ kit (Lonza). Cells were trypsinized and counted, and 1000 cells/well were plated in 50 μl of growth medium into 384-well white TC plates (Greiner) using Multidrop™ 384 (Thermo Scientific) Washer Dispenser II. The number of viable cells was monitored using CellTiter-Glo® Luminescent kit (Promega) in accordance with the manufacturer's protocol. Luminescence was measured using luminescence module of PHERAstar™ FS plate reader (BMG Labtech). Data analysis was performed using GeneData 12 analytic software. Assay ready plate preparation: Compounds transferred into black microplates (Greiner 784900) using Labcyte Echo® acoustic dispensing technology. Assay ready plates were then sealed with heat seals. If not used immediately, plates were frozen at −20° C. and held in polypropylene boxes with silica-gel desiccant.
# Exemplary Pin1-binding compounds were also tested for non-selective cytotoxicity in a viability assay against IMR90 lung fibroblasts.
# [2] = 2 μM Pin1 with 2 μM test compound for 1 hour at room temperature
# [3] = 2 μM Pin1 with 2 μM test compound for 15 minutes at room temperature
Compound,Ki (GST-Pin1) [nM],Labeling [%] (catalytic domain of Pin1; [2]),EC50 (MDA-MB-231 cells) [nM],Labeling [%] (catalytic domain of Pin1; [3]),EC50 (MDA-MB-231 cells; Homo sapiens) [nM],Reactivity Log k [1],Reactivity k [1] [M⁻¹ s⁻¹]
Cc1cccc(CN(C(=O)CCl)C2CCS(=O)(=O)C2)c1 (centres unmarked) [Pin1-2-6],194,30,5600,–,–,−6.80,1.58e-07
"O=C1C=CC(=O)c2c(O)cccc21 [Juglone, 5-hydroxy-1,4-naphthalenedione, reference compound]",1750,–,–,–,–,–,–
"O=C(CCl)N(CC1CCCCC1)C1CCS(=O)(=O)C1 (centres unmarked) [Pin1-2-3, 2-chloro-N-(sulfolan-3-yl)-N-(cyclohexylmethyl)acetamide]",46,–,–,42,7500,−6.82,1.53e-07
O=C(CCl)N(C1CCS(=O)(=O)C1)C(Cc1ccccc1)c1ccccc1 (centres unmarked) [Pin1-2-1],58,50,2800,–,–,−6.96,1.09e-07
O=C(CCl)N(Cc1cn(-c2ccc(CO)c(F)c2)nn1)C1CCS(=O)(=O)C1 (centres unmarked) [Compound P1-01-F08],–,–,–,64,–,−5.88,1.32e-06
CC(=O)c1cccc(-n2cc(CN(C(=O)CCl)C3CCS(=O)(=O)C3)nn2)c1 (centres unmarked) [Compound P1-03-D08],–,–,–,54,–,−5.92,1.2e-06

# Further lines, with some results ahead:
Ki (GST-Pin1) [nM],Labeling [%] (catalytic domain of Pin1; [2]),EC50 (MDA-MB-231 cells) [nM],Labeling [%] (catalytic domain of Pin1; [3]),EC50 (MDA-MB-231 cells; Homo sapiens) [nM],Compound,Reactivity Log k [1],Reactivity k [1] [M⁻¹ s⁻¹]
121,–,–,–,–,O=C(CCl)N(CC1CC1)C1CCS(=O)(=O)C1 (centres unmarked) [Pin1-3-13],−6.82,1.5e-07
83,43,11300,–,–,CC1(N(Cc2ccccc2)C(=O)CCl)CCS(=O)(=O)C1 (centres unmarked) [Pin1-2-9],−7.11,7.68e-08
–,45,8900,–,–,O=C(CCl)N(Cc1cccs1)C1CCS(=O)(=O)C1 (centres unmarked) [Pin1-433],−6.67,2.13e-07
133,52,5100,–,–,Cc1ccsc1CN(C(=O)CCl)C1CCS(=O)(=O)C1 (centres unmarked) [Pin1-2-8],−6.66,2.19e-07
39,37,6100,–,–,O=C(CCl)N(Cc1ccccc1OCc1ccccc1)C1CCS(=O)(=O)C1 (centres unmarked) [Pin1-2-7],−6.99,1.02e-07
–,19,–,–,–,O=C(CCl)N(Cc1cccc(Cl)c1)C1CCS(=O)(=O)C1 (centres unmarked) [Pin1-2-11],−6.94,1.15e-07
